Results: article PMC9138545, “Incorporation of Oxidized Phenylalanine Derivatives into Insulin Signaling Relevant Proteins May Link Oxidative Stress to Signaling Conditions Underlying Chronic Insulin Resistance” (Biomedicines, 2022)

How the values were obtained:
[1] = test system: 3T3-L1 adipocytes; experiment: HPLC of non-protein-bound intracellular tyrosines; assay type: cell-based, mouse; conditions: for cellular uptake of amino acids (non-protein-bound intracellular content): 5 or 25 mmol/L glucose, with or without 400 nmol/L insulin; for uptake by fat cells: time-dependent incubation
Procedure: (§1) Early passages of mouse embryo fibroblast (3T3-L1) (ATCC, Manassas, VA, US) were cultured in Dulbecco’s modified Eagle medium (DMEM, Sigma Aldrich, Budapest, Hungary, CAT number: D6046; Invitrogen, Waltham, MA, USA, CAT number: 41966-029) supplemented with 100 U/mL penicillin, 0.1 mg/mL streptomycin (Gibco, Budapest, Hungary, CAT number: 15070-063) and 10% heat-inactivated Fetal Bovine Serum (FBS, Gibco, CAT number: 16170-078), supplemented with 398 nM p-, m-, or o-Tyr (equimolar to the original p-Tyr content of the medium) purchased from Sigma (CAT number: para-Tyr: T8566, m-Tyr: T3629, o-Tyr: 93851). Media contained 25 or 5 mmol/L glucose (experiment dependent) pyruvate and L-glutamine. Cells were grown at 37 °C and 5% CO2. Adipocyte differentiation was achieved by DMEM supplemented with 10% FBS (Gibco, Csertex, Budapest, Hungary, CAT number: 10106-169) (FBS) and a […] insulin (Sigma Aldrich, Budapest, Hungary, CAT number: I 9278), […] isobuthylmethylxanthine (Sigma Aldrich, Budapest, Hungary, CAT number: I 5879), and 250 nmol/L dexamethasone (Sigma Aldrich, Budapest, Hungary, CAT number: 861871) containing cocktail. From day 4 onward, cultures were maintained in DMEM containing 1.5 μg/mL insulin and 10% FBS with a medium change every other day until experimental treatments were started. After 90% of the cell population reached the adipocyte phenotype, prior to all treatments, cells were incubated overnight in serum-deprived medium. Experimental treatment was performed in serum-deprived medium containing 200 or 400 nmol/L insulin, for 5 min.
To measure the total intracellular non-protein-bound tyrosine concentration, prior to the freezing of samples overnight at −70 °C to achieve cell lysis, 200 μL distilled water was added to each. After melting up, samples were centrifuged for 15 min at 15,000 rpm. A total of 200 µL of the supernatant was mixed with 200 µL of 60% trichloroacetic acid. After 30 min incubation on ice, samples were centrifuged again at 15,000 rpm for 15 min. Then, the supernatant was filtered and was diluted 5-fold and then 160 µL distilled water was added to 40 µL of filtrate, followed by the injection of the mixture onto the HPLC column.
The amounts of p-, o-, m-Tyr and Phe in the samples were determined by measuring their autofluorescence. Thus, no derivatization or staining was needed. Samples were measured on a Shimadzu Class 10 HPLC system equipped with an RF-10 AXL fluorescent detector (Shimadzu USA Manufacturing Inc., Canby, OR, USA). The mobile phase consisted of 1% sodium acetate and 1% acetic acid dissolved in water. The separation took place on a LiChroCHART 250-4 column (Merck KGaA, Darmstadt 64271, Germany) in an isocratic run. Wavelengths of 275 nm for excitation and 305 nm for emission were used to assess p-, o- and m-Tyr, while Phe was detected at 258 nm excitation and 288 nm emission wavelengths. Determination of the area under the curve (AUC) plus external standard calibration was used to calculate the precise concentrations of the amino acids.

[2] = test system: plants; conditions: ref [41]; cited from earlier work
Source text: (§2) Furthermore, m- and o-Tyr may have a role beyond being markers ROS attack. […] For example, we have described that patients on renal replacement therapy show a connection between plasma levels of o-Tyr and erythropoietin (EPO) resistance. In a further set of experiments, m- and o-Tyr in ...

[3] = test system: concomitant tumor growth; conditions: ref [42]; cited from earlier work
Source text: as §2

[4] = test system: 3T3-L1 adipocytes; experiment: Isotope glucose uptake (deoxy-D-glucose 2-[1 2-3H(N)]) in differentiated 3T3-L1 adipocytes; assay type: cell-based, mouse; conditions: for insulin-induced glucose uptake, time dependence: 200 nmol/L insulin, cells grown 1, 2, 3, 4, 5 or 12 days with p-, n = 5–8; for insulin-induced glucose uptake, time dependence / insulin-induced glucose uptake, 5 mmol/L glucose: m- or o-Tyr; for insulin-induced glucose uptake, 5 mmol/L glucose: 2, 20, 200, 400 nmol/L insulin, medium with p-; for non-stimulated (basal) glucose uptake: no insulin, cells grown 1-12 days with m- or o-Tyr, vs. p-Tyr control
Procedure: as §1
Initially, cells were kept in glucose-free DMEM (Gibco, Csertex, Budapest, Hungary) for 30 min and then were treated with 2, 20, 200, or 400 nmol/L insulin for 100 min. Concurrently, 1 μCi/mL deoxy-D-glucose 2-[1 2-3H(N)] (3.7 × 104 Bq/mL) (Izotóp Intézet, Budapest, Hungary) was added to the plates for 100 min. After scraping the cells into the medium, they were centrifuged for 5 min at 1000 rpm. We dissolved the sediment in 70 μL of lysis buffer, then glucose uptake was determined by scintillation counting by measuring 30 μL of the sample, using a Beckman LS 5000 TD counter, in counts per minute (CPM), for five minutes each, with average activity was used as the outcome. Following freezing overnight at −70 °C, protein concentration was measured with a Hitachi spectrophotometer. Results were normalized for protein content.

Structure (SMILES)	cellular uptake of amino acids (non-protein-bound intracellular content) [1]	uptake by fat cells [1]	natural herbicide, plant growth [2]	inhibition of concomitant tumor growth [3]	insulin-induced glucose uptake, time dependence [4]	insulin-induced glucose uptake, 5 mmol/L glucose [4]	non-stimulated (basal) glucose uptake [4]
N[C@@H](Cc1cccc(O)c1)C(=O)O [m-Tyr, meta-tyrosine]	continuous uptake of amino acids which was independent of glucose concentration (5 or 25 mmol/L) and the presence of insulin	Taken Up by Fat Cells within Several Minutes	act as a natural herbicide and inhibit the growth of plants	involved in the inhibition of concomitant tumor growth	no significant effect	failed to induce the glucose uptake	lower than that of the p-Tyr control
NC(Cc1ccccc1O)C(=O)O (stereo not drawn) [o-Tyr, ortho-tyrosine]	continuous uptake of amino acids which was independent of glucose concentration (5 or 25 mmol/L) and the presence of insulin	Taken Up by Fat Cells within Several Minutes	–	–	no significant effect	failed to induce the glucose uptake	lower than that of the p-Tyr control
